Ten compounds from US20240336608A1, “IL4I1 INHIBITORS AND METHODS OF USE” (Merck Sharp & Dohme LLC, priority 2023, published 2024) can be followed below.

The target in this experiment is T1, recombinant IL4I1 (Homo sapiens, UniProt Q96RQ9).
T1 construct: purchased R&D Systems 5684-AO-020
T1 sequence (Q96RQ9 22-567): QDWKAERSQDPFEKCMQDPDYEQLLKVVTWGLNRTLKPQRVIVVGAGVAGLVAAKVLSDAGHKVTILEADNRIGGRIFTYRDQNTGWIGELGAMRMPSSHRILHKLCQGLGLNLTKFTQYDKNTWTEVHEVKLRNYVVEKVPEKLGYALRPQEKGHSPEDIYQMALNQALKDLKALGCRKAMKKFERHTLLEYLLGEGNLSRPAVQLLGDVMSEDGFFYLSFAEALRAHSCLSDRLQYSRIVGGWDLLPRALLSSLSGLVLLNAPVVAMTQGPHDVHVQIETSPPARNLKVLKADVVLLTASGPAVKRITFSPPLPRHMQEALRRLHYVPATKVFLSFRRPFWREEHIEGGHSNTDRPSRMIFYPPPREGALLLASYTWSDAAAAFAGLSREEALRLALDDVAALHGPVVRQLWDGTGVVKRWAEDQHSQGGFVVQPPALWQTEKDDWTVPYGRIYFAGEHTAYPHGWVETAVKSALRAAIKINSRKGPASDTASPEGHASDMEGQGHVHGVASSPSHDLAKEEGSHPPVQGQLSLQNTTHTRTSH
As to the kind of experiment: IL4I1 Enzymatic Assay (Amplex Red/HRP coupled detection of H2O2, fluorescence). It counts as biochemical. Particulars: 1 nM recombinant IL4I1; four-hour pre-incubation with compound; 1 mM each Phe, Tyr, Trp; ten-point titration. In a few lines: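 H2O2 output was coupled to resorufin fluorescence (ex 544/em 590) via 0.05 mM Amplex Red and 1 U/mL HRP. Substrate: Phe, Tyr, Trp at 1 mM each; enzyme 1 nM, 4 h compound pre-incubation, 120 min reaction, pH 7.0 Hepes. EC50 by nonlinear four-parameter regression, 1:3 ten-point titration.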
For the compound `CCc1ccc(-n2cc(C(=O)NCc3nnc(-c4ccccc4)s3)nn2)c(C)n1` [Example 336, 1-(6-ethyl-2-methylpyridin-3-yl)-N-((5-phenyl-1,3,4-thiadiazol-2-yl)methyl)-1H-1,2,3-triazole-4-carboxamide], the 50% effective concentration (EC50) was determined as 9 nM.

In the case of `Cc1ccc(-n2cc(C(=O)NCc3nnc(-c4ccccc4)s3)nn2)c(C#N)n1` [Example 337, 1-(2-cyano-6-methylpyridin-3-yl)-N-((5-phenyl-1,3,4-thiadiazol-2-yl)methyl)-1H-1,2,3-triazole-4-carboxamide], the EC50 is 53 nM.

For the compound `Cc1ccc(-n2cc(C(=O)NCc3nnc(-c4ccccc4)s3)nn2)c(C(C)(C)O)n1` [Example 338, 1-(2-(2-hydroxypropan-2-yl)-6-methylpyridin-3-yl)-N-((5-phenyl-1,3,4-thiadiazol-2-yl)methyl)-1H-1,2,3-triazole-4-carboxamide], the EC50 was 24 nM.

For the compound `Cc1ccc(-n2cc(C(=O)NCc3nnc(-c4ccccc4)s3)nn2)c(=O)[nH]1` [Example 339, 1-(6-methyl-2-oxo-1,2-dihydropyridin-3-yl)-N-((5-phenyl-1,3,4-thiadiazol-2-yl)methyl)-1H-1,2,3-triazole-4-carboxamide], the EC50 turned out to be 174 nM.

Turning to `Cc1ccc(-n2cc(C(=O)NCc3nnc(-c4ccccc4)s3)nn2)c(N)n1` [Example 340, 1-(2-amino-6-methylpyridin-3-yl)-N-((5-phenyl-1,3,4-thiadiazol-2-yl)methyl)-1H-1,2,3-triazole-4-carboxamide], the EC50 amounted to 36 nM.

For `Cc1nc(S(C)(=O)=O)ccc1-n1cc(C(=O)NCc2nnc(-c3ccccc3)s2)nn1` [Example 341, 1-(2-methyl-6-(methylsulfonyl)pyridin-3-yl)-N-((5-phenyl-1,3,4-thiadiazol-2-yl)methyl)-1H-1,2,3-triazole-4-carboxamide], the EC50 is 271 nM.

On to `Cc1nc(N)ccc1-n1cc(C(=O)NCc2nnc(-c3ccccc3)s2)nn1` [Example 342, 1-(6-amino-2-methylpyridin-3-yl)-N-((5-phenyl-1,3,4-thiadiazol-2-yl)methyl)-1H-1,2,3-triazole-4-carboxamide], for which the EC50 was 5 nM.

Regarding `O=C(NCc1nnc(-c2ccccc2)s1)c1cn(CC2(CO)CC2)nn1` [Example 343, 1-((1-(hydroxymethyl)cyclopropyl)methyl)-N-((5-phenyl-1,3,4-thiadiazol-2-yl)methyl)-1H-1,2,3-triazole-4-carboxamide], the EC50 was 92 nM.

For `Cc1n[nH]c(C)c1-n1cc(C(=O)NCc2nnc(-c3ccccc3)s2)nn1` [Example 346, 1-(3,5-dimethyl-1H-pyrazol-4-yl)-N-((5-phenyl-1,3,4-thiadiazol-2-yl)methyl)-1H-1,2,3-triazole-4-carboxamide], the EC50 came to 108 nM.

Turning to `O=C(NCc1nnc(-c2ccncc2)s1)c1cn(CC(F)F)nn1` [Example 347, 1-(2,2-difluoroethyl)-N-((5-(pyridin-4-yl)-1,3,4-thiadiazol-2-yl)methyl)-1H-1,2,3-triazole-4-carboxamide], the EC50 is 7 nM.

A word on the EC50: it is the midpoint of the concentration-response curve.
